Source: PubChem BioAssay (NCI)
Where “and” joins values, the source holds several entries; their conditions need not be identical. Identical values can stand only once.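 The compound was tested at five concentrations on cells cultured in 96-well plates, with a 48-hour exposure period. Abbreviation: GI50, concentration required for 50% inhibition of growth. TGI is the concentration that stops growth completely.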

Key:
Experiment in all cases: NCI-60 cell line screen, 48 h
[1] = test system: NCI-H460 lung
[2] = test system: OVCAR-5 ovarian
[3] = test system: UACC-257 melanoma
[4] = test system: SNB-19 CNS
[5] = test system: SN12C renal
[6] = test system: OVCAR-3 ovarian
[7] = test system: SK-OV-3 ovarian
[8] = test system: RXF 393 renal
[9] = test system: HOP-62 NSCLC
[10] = test system: NCI-H522 lung

Row | SMILES | GI50 [1] | TGI [1] | TGI [2] | TGI [3] | TGI [4] | GI50 [5] | GI50 [6] | TGI [6] | GI50 [7] [µM] | TGI [7] [µM] | TGI [8] [µM] | TGI [9] [µM] | TGI [5] [µM] | TGI [10] [µM] | GI50 [3] [µM]
1 | COc1ccc(S(=O)(=O)N2CCN(C(=O)c3ccc(-c4ccccc4)cc3)CC2C(=O)NO)cc1 (stereo unspecified) | 3.62 µM and 29.3 µM | 12.5 µM and > 100 µM | 12.5 µM and > 100 µM | 12.5 µM and > 100 µM | 12.5 µM and > 100 µM | 2.16 µM and 16.2 µM | 3.88 µM and 11.2 µM | 11.2 µM and 47.6 µM | > 100 | > 100 | – | – | – | – | –
2 | CCC(=O)c1c(NOC2OCC(OC(C)=O)C(OC(C)=O)C2OC(C)=O)nc(OC)n(C)c1=O (stereo unspecified) | – | > 100 µM | > 100 µM | > 100 µM | > 100 µM | – | – | > 100 µM | – | > 100 | > 100 | > 100 | > 100 | – | –
3 | O=C1CC2C(=O)c3ccccc3CC2c2ccccc21 (stereo unspecified) | – | > 100 µM | > 100 µM | 75.2 µM | > 100 µM | – | – | > 100 µM | – | > 100 | – | > 100 | > 100 | > 100 | –
4 | COc1ccc(N=NC(C(=O)c2ccccc2)C(=O)c2ccccc2)cc1 | – | 68.4 µM | 87.1 µM | > 100 µM | 80.3 µM | – | – | > 100 µM | – | 96 | – | 68.5 | 78.8 | 45 | –
5 | COc1ccc(NC(=O)/C(=C/c2ccccc2)C(C)=O)cc1 | – | 62.5 µM | 34.1 µM | 29.3 µM | 33.4 µM | – | – | 29.9 µM | – | 95.1 | – | 32.3 | 31.4 | 4.6 | –
6 | CCOC(=O)C1=C(Nc2ccc(Cl)cc2Cl)OCC1=O | – | > 100 µM | > 100 µM | > 100 µM | > 100 µM | – | – | > 100 µM | – | > 100 | – | > 100 | > 100 | > 100 | –
7 | CCC1CC2C(=O)N(c3ccccc3)C(=O)C2c2[nH]c3ccccc3c21 (stereo unspecified) | – | 64.6 µM | > 100 µM | – | 75.1 µM | – | – | 44.9 µM | – | 29.3 | 59.6 | – | 71.1 | – | –
8 | COC(=O)/C=C(C)/C=C/C1OC(C)OCC1O (stereo unspecified) | – | > 100 µM | > 100 µM | > 100 µM | > 100 µM | – | – | > 100 µM | – | > 100 | – | > 100 | > 100 | > 100 | –
9 | C=C(CC(NC(=O)c1ccc(C(CC)Cc2cnc3nc(N)nc(N)c3n2)cc1)C(=O)O)C(=O)O (stereo unspecified) | – | > 100 µM | – | > 100 µM | > 100 µM | 0.0205 µM | – | – | 0.0669 | > 100 | > 100 | 0.742 | > 100 | – | 0.0599
